PubChem BioAssay AID256 (DTP/NCI, 2004)
Several values for one entry are separate records, joined by “and”; a condition that tells them apart may be missing. Identical values can stand only once. Inconclusive results and toxic doses are left out.

Test system: CD2F1 mice, L1210 leukemia ip, survival T/C
Assay: NCI In Vivo Anticancer Drug Screen. Data for tumor model L1210 Leukemia (intraperitoneal) in CD2F1 (CDF1) mice
Settings: higher = longer survival
Procedure: The antitumor activity of compounds was measured in mice bearing transplantable tumors. Survival or tumor size were measured and the results are expressed as the measurement made in the treated group (T) divided by the measurement made in the vehicle treated control group (C). The tumor model used in this assay is L1210 Leukemia (intraperitoneal) in CD2F1 (CDF1) mice

[1] = endpoint: mean survival time, dose: 100.0 mg/kg/injection, schedule: Q04DX003 (ip), vehicle: saline with Tween-80
[2] = endpoint: mean survival time, dose: 200.0 mg/kg/injection, schedule: Q04DX003 (ip), vehicle: saline with Tween-80
[3] = endpoint: mean survival time, dose: 400.0 mg/kg/injection, schedule: Q04DX003 (ip), vehicle: saline with Tween-80
[4] = endpoint: mean survival time, dose: 100.0 mg/kg/injection, schedule: Q04DX002 (ip), vehicle: saline with Tween-80
[5] = endpoint: mean survival time, dose: 200.0 mg/kg/injection, schedule: Q04DX002 (ip), vehicle: saline with Tween-80
[6] = endpoint: mean survival time, dose: 400.0 mg/kg/injection, schedule: Q04DX002 (ip), vehicle: saline with Tween-80
[7] = endpoint: mean survival time, dose: 100.0 mg/kg/injection, schedule: Q01DX009 (ip), vehicle: saline with Tween-80
[8] = endpoint: mean survival time, dose: 200.0 mg/kg/injection, schedule: Q01DX009 (ip), vehicle: saline with Tween-80
[9] = endpoint: mean survival time, dose: 100.0 mg/kg/injection, schedule: Q01DX001 (ip), vehicle: saline with Tween-80
[10] = endpoint: mean survival time, dose: 200.0 mg/kg/injection, schedule: Q01DX001 (ip), vehicle: saline with Tween-80
[11] = endpoint: mean survival time, dose: 400.0 mg/kg/injection, schedule: Q01DX001 (ip), vehicle: saline with Tween-80
[12] = endpoint: mean survival time, dose: 400.0 mg/kg/injection, schedule: Q01DX009 (ip), vehicle: saline with Tween-80

O=C(c1ccccc1)N(CCCCl)C(=O)N(CCCCl)C(=O)c1ccccc1
T/C [1]: 105 % of control
T/C [2]: 100 % of control
T/C [3]: 108 % of control

O=C(O)c1ccc(CC2CCC2)cc1
T/C [4]: 96 % of control
T/C [5]: 96 % of control
T/C [6]: 89 % of control

CCCC(C)(C)c1ccc(Cl)cc1
T/C (endpoint: mean survival time, dose: 50.0 mg/kg/injection, schedule: Q01DX009 (ip), vehicle: saline with Tween-80): 96 % of control
T/C [7]: 104 % of control
T/C [8]: 104 % of control

COc1cc([C@@H]2c3cc4c(cc3[C@H](O)[C@H]3COC(=O)[C@H]23)OCO4)cc(OC)c1OC
T/C (endpoint: median survival time, dose: 0.62 mg/kg/injection, schedule: Q01DX009 (ip), vehicle: saline with Tween-80): 122 % of control
T/C (endpoint: median survival time, dose: 0.63 mg/kg/injection, schedule: Q01DX009 (ip), vehicle: saline with Tween-80): 112 % of control
T/C (endpoint: median survival time, dose: 1.0 mg/kg/injection, schedule: Q01DX005 (ip), vehicle: Klucel (hydroxypropylcellulose) (HPC)): 124 % of control
T/C (endpoint: median survival time, dose: 1.25 mg/kg/injection, schedule: Q01DX009 (ip), vehicle: saline with Tween-80): 116 % of control and 120 % of control
T/C (endpoint: median survival time, dose: 1.8 mg/kg/injection, schedule: Q01DX009 (ip), vehicle: saline with Tween-80): 122 % of control
T/C (endpoint: median survival time, dose: 2.0 mg/kg/injection, schedule: Q01DX005 (ip), vehicle: Klucel (hydroxypropylcellulose) (HPC)): 118 % of control
T/C (endpoint: median survival time, dose: 2.5 mg/kg/injection, schedule: Q01DX009 (ip), vehicle: saline with Tween-80): 122 % of control
T/C (endpoint: median survival time, dose: 10.0 mg/kg/injection, schedule: Q01DX009 (ip), vehicle: saline with Tween-80): 115 % of control and 111 % of control
T/C (endpoint: median survival time, dose: 13.89 mg/kg/injection, schedule: Q01DX009 (ip), vehicle: saline with Tween-80): 155 % of control

CCOC(=O)Nc1cc(=O)cc(NC(=O)OCC)[nH]1
T/C (endpoint: mean survival time, dose: 75.0 mg/kg/injection, schedule: Q04DX003 (ip), vehicle: saline): 98 % of control
T/C (endpoint: mean survival time, dose: 150.0 mg/kg/injection, schedule: Q04DX003 (ip), vehicle: saline): 97 % of control
T/C (endpoint: mean survival time, dose: 300.0 mg/kg/injection, schedule: Q04DX003 (ip), vehicle: saline): 97 % of control

CC(C)=CCNc1ncnc2c1ncn2C1OC(COP(=O)(O)O)C(O)C1O (stereo not drawn)
T/C (endpoint: mean survival time, dose: 25.0 mg/kg/injection, schedule: Q01DX005 (ip), vehicle: water): 103 % of control
T/C (endpoint: mean survival time, dose: 50.0 mg/kg/injection, schedule: Q01DX005 (ip), vehicle: water): 104 % of control
T/C (endpoint: mean survival time, dose: 100.0 mg/kg/injection, schedule: Q01DX005 (ip), vehicle: water): 103 % of control
T/C (endpoint: mean survival time, dose: 200.0 mg/kg/injection, schedule: Q01DX005 (ip), vehicle: water): 114 % of control

COC(=O)CC1(C(=O)OC)NC(=O)c2cc(OC)c(Cl)cc2N1 (stereo not drawn)
T/C [9]: 88 % of control
T/C [4]: 96 % of control
T/C [10]: 94 % of control
T/C [5]: 96 % of control
T/C [11]: 95 % of control
T/C [6]: 86 % of control

O=C(c1cccnc1)c1cc2ccccc2n1S(=O)(=O)c1ccccc1
T/C [9]: 97 % of control
T/C [10]: 97 % of control
T/C [11]: 97 % of control

CC(=O)OCC(=O)C1(O)CCC2C3CCC4=CC(=O)CCC4(C)C34OC4CC21C (stereo not drawn)
T/C [7]: 98 % of control
T/C [8]: 94 % of control
T/C [12]: 91 % of control

Cn1nc(N)c2ncc(-c3ccc(Cl)cc3)nc21
T/C (endpoint: mean survival time, dose: 100.0 mg/kg/injection, schedule: Q04DX003 (ip), vehicle: alcohol): 91 % of control
T/C (endpoint: mean survival time, dose: 200.0 mg/kg/injection, schedule: Q04DX003 (ip), vehicle: alcohol): 89 % of control
T/C (endpoint: mean survival time, dose: 400.0 mg/kg/injection, schedule: Q04DX003 (ip), vehicle: alcohol): 91 % of control

NCCSSCC(N)C(=O)O (stereo not drawn)
T/C [1]: 106 % of control
T/C [2]: 103 % of control
T/C [3]: 94 % of control

Cc1cc(C)c(NC(=O)/C=C/c2ccccc2)c(C)c1
T/C [4]: 96 % of control
T/C [5]: 89 % of control
T/C [6]: 96 % of control

CC/C(=C/c1ccc2c(c1)OCO2)[N+](=O)[O-]
T/C [9]: 105 % of control

c1ccc2n[se]nc2c1
T/C (endpoint: mean survival time, dose: 3.13 mg/kg/injection, schedule: Q01DX009 (ip), vehicle: saline): 98 % of control
T/C (endpoint: mean survival time, dose: 3.13 mg/kg/injection, schedule: Q04DX003 (ip), vehicle: saline): 97 % of control
T/C (endpoint: mean survival time, dose: 6.25 mg/kg/injection, schedule: Q01DX009 (ip), vehicle: saline): 94 % of control
T/C (endpoint: mean survival time, dose: 6.25 mg/kg/injection, schedule: Q04DX003 (ip), vehicle: saline): 101 % of control
T/C (endpoint: mean survival time, dose: 12.5 mg/kg/injection, schedule: Q01DX009 (ip), vehicle: saline): 96 % of control
T/C (endpoint: mean survival time, dose: 12.5 mg/kg/injection, schedule: Q04DX003 (ip), vehicle: saline): 103 % of control

CCOC(=O)CNC(=O)Sc1ccc(C(C)(C)C)cc1
T/C (endpoint: mean survival time, dose: 12.5 mg/kg/injection, schedule: Q01DX009 (ip), vehicle: Klucel (hydroxypropylcellulose) (HPC)): 96 % of control and 105 % of control
T/C (endpoint: mean survival time, dose: 25.0 mg/kg/injection, schedule: Q01DX009 (ip), vehicle: Klucel (hydroxypropylcellulose) (HPC)): 101 % of control and 105 % of control
T/C (endpoint: mean survival time, dose: 50.0 mg/kg/injection, schedule: Q01DX009 (ip), vehicle: Klucel (hydroxypropylcellulose) (HPC)): 101 % of control and 102 % of control
T/C (endpoint: mean survival time, dose: 100.0 mg/kg/injection, schedule: Q01DX009 (ip), vehicle: Klucel (hydroxypropylcellulose) (HPC)): 100 % of control and 105 % of control
T/C (endpoint: mean survival time, dose: 200.0 mg/kg/injection, schedule: Q01DX009 (ip), vehicle: Klucel (hydroxypropylcellulose) (HPC)): 100 % of control and 103 % of control
T/C (endpoint: mean survival time, dose: 400.0 mg/kg/injection, schedule: Q01DX009 (ip), vehicle: Klucel (hydroxypropylcellulose) (HPC)): 97 % of control

CCCCNC(=O)C1CC2c3cccc4[nH]cc(c34)CC2N(C)C1 (stereo not drawn)
T/C (endpoint: mean survival time, dose: 50.0 mg/kg/injection, schedule: Q04DX003 (ip), vehicle: saline with Tween-80): 88 % of control
T/C [1]: 91 % of control

CCOC(=O)c1c(C)csc1NC(C)=O
T/C [7]: 108 % of control
T/C [1]: 96 % of control
T/C [8]: 97 % of control
T/C [2]: 98 % of control
T/C [12]: 90 % of control
T/C [3]: 93 % of control

C=CC[N+]12CC=C3COC(=O)C(C)(O)C(C)(O)C(C)C(=O)OC(CC1)C32 (stereo not drawn)
T/C (endpoint: mean survival time, dose: 100.0 mg/kg/injection, schedule: Q04DX003 (ip), vehicle: Klucel (hydroxypropylcellulose) (HPC)): 101 % of control
T/C (endpoint: mean survival time, dose: 200.0 mg/kg/injection, schedule: Q04DX003 (ip), vehicle: Klucel (hydroxypropylcellulose) (HPC)): 90 % of control
T/C (endpoint: mean survival time, dose: 400.0 mg/kg/injection, schedule: Q04DX003 (ip), vehicle: Klucel (hydroxypropylcellulose) (HPC)): 93 % of control

NP(=O)(Oc1ccccc1)Oc1ccccc1
T/C (endpoint: mean survival time, dose: 25.0 mg/kg/injection, schedule: Q01DX009 (ip), vehicle: saline with Tween-80): 96 % of control
T/C [1]: 90 % of control

CC12CCC(O)CC1CCC1C2CCC2(C)C(C3COC(=O)C3)CCC12 (stereo not drawn)
T/C (endpoint: mean survival time, dose: 50.0 mg/kg/injection, schedule: Q01DX001 (ip), vehicle: saline): 98 % of control
T/C (endpoint: mean survival time, dose: 100.0 mg/kg/injection, schedule: Q01DX001 (ip), vehicle: saline): 98 % of control
T/C (endpoint: mean survival time, dose: 200.0 mg/kg/injection, schedule: Q01DX001 (ip), vehicle: saline): 96 % of control

C1=CC2c3ccc4ccccc4c3C(c3ccccc3)C2C=C1 (stereo not drawn)
T/C [1]: 108 % of control
T/C [2]: 96 % of control
T/C [3]: 102 % of control

CN(C)C(=O)SC1=C(c2c(Cl)cccc2Cl)C(=O)c2ccccc21
T/C (endpoint: median survival time, dose: 25.0 mg/kg/injection, schedule: Q01DX009 (ip), vehicle: Klucel (hydroxypropylcellulose) (HPC)): 112 % of control
T/C (endpoint: median survival time, dose: 50.0 mg/kg/injection, schedule: Q01DX009 (ip), vehicle: Klucel (hydroxypropylcellulose) (HPC)): 112 % of control
T/C (endpoint: median survival time, dose: 100.0 mg/kg/injection, schedule: Q01DX009 (ip), vehicle: Klucel (hydroxypropylcellulose) (HPC)): 104 % of control
T/C (endpoint: median survival time, dose: 200.0 mg/kg/injection, schedule: Q01DX009 (ip), vehicle: Klucel (hydroxypropylcellulose) (HPC)): 101 % of control
T/C (endpoint: median survival time, dose: 400.0 mg/kg/injection, schedule: Q01DX009 (ip), vehicle: Klucel (hydroxypropylcellulose) (HPC)): 108 % of control
